Experimental data: article PMC9866218, “Characterization and Chemical Synthesis of Cm39 (α-KTx 4.8): A Scorpion Toxin That Inhibits Voltage-Gated K^+ Channel KV1.2 and Small- and Intermediate-Conductance Ca^2+-Activated K^+ Channels KCa2.2 and KCa3.1” (Toxins, 2023)
“Also recorded” adds a separate entry of the source.

What was measured:
[1] = tested on: hKV1.3; type: cell-based, human
Source text: (§1) We, therefore, aimed at testing the pharmacological activity of sCm39 on a battery of various potassium and sodium ion channels. Among the tested channels were six members of human voltage-gated K^+ (hKV) channels from Shaker family, hKV1.1-hKV1.6 (Figure 3A–F) and three members of Ca^2+-activated potassium channel; hKCa2.2 (SK2, Figure 3I), the small-conductance Ca^2+-activated channel; hKCa3.1 (IKCa1, SK4. Figure 3J), the intermediate-conductance Ca^2+-activated channel expressed in T lymphocytes; and mKCa1.1 (BK, Slo1, MaxiK, Figure 3H), the large-conductance voltage- and Ca^2+-activated channel of mice. In addition, we also screened the effect of Cm39 on hKV11.1 (hERG1, Figure 3G), a voltage-gated cardiac K^+ channel, and two human voltage-gated sodium (hNaV) channels, hNaV1.4 (Figure 3K) and hNaV1.5 (Figure 3L), expressed in skeletal and cardiac muscles, respectively. These ion channels were heterologously expressed in the CHO or HEK cell lines except for KV1.3. Human peripheral T lymphocytes. They were stimulated with Phytohemagglutinin A (PHA) to increase the KV1.3 channel expression, and Ca^2+-free intracellular solution was used to avoid KCa3.1 channel activation. Appropriate depolarization protocols were used to record ionic currents in voltage-clamped cells (see Figure 3 insets and Material and Methods for details). Freshly dissolved sCm39 in extracellular solution was applied at 1 µM concentration on the cell using a custom-built micro-perfusion system at ~200 µL/min flow rate.
For the measurement of KV1.x, mKCa1.1 and NaV1.x currents the extracellular solution was composed of (in mM) 145 NaCl, 5 KCl, 2.5 CaCl2, 1 MgCl2, 10 HEPES and 5.5 glucose, pH 7.35. In the HK-150 and Na^+-free bath solution bath all Na^+ was substituted by K^+ or Choline-Cl, respectively, other ingredients remained unchanged. […]
Whole-cell currents were recorded in voltage-clamped cells following standard protocols by using a Multiclamp 700B amplifier connected to a computer with Axon Digidata1440 digitizer and for data acquisition, Clampex 10.7 software was used (Molecular Devices).

[2] = biological target: T1, hKV1.2 (Homo sapiens, UniProt P16389); assay: Whole-cell patch-clamp, block of KV1.2 current; type: cell-based
T1 construct: GFP (vector pCMV6-AC-GFP); host or cells: CHO cells, transient transfection
T1 sequence (P16389 whole entry): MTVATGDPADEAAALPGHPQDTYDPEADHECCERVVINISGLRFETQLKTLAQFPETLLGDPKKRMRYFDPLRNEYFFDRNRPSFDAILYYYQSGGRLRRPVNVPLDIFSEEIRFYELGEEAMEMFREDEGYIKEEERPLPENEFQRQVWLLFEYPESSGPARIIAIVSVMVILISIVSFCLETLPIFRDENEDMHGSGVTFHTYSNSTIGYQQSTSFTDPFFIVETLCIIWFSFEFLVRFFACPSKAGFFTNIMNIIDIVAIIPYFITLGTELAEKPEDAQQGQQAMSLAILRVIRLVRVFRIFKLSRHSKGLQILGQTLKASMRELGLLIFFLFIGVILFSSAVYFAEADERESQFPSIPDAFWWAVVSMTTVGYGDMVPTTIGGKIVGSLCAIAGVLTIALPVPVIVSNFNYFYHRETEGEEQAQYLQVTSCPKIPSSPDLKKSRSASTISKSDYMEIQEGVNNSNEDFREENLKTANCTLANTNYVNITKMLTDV
Source text: as §1
For comprehensive characterization of Cm39 activity on KV1.2, we determined the concentration–response of current inhibition by Cm39, the kinetic parameters of its binding and assessed the effect on voltage dependence of steady-state activation. The whole-cell KV1.2 currents were recorded in CHO cells using depolarization pulses to +50mV from −120mV holding potential (Vh) every 15 s. Since the activation kinetics of KV1.2 are highly variable, the duration of pulses was set on a cell-by-cell basis between 15–300 ms to allocate sufficient time for reaching maximum currents at the test potentials. […] The remaining current fractions (RCF = I/I0, where I0 is the peak current in the absence of the toxin, and I is the peak current at equilibrium block in the presence of sCm39 at a given concentration) were calculated and plotted as a function of toxin concentration.
Single-exponential decay functions were fitted to the normalized peak currents in the presence of each sCm39 concentration (Figure 4C, data points in red shades) to determine the time constant for the onset of block (τon, wash-in or association time constant). The dissociation time constant for the relief from block (τoff, wash-out time constant) was obtained by fitting a single-exponential rising function to the normalized peak currents in the wash-out procedure (Figure 4C, data point in black empty circles). Assuming a simple bimolecular interaction between the toxin and the channel, time constants for the onset and recovery from the block can be stated as follows:(1) τon=1/kon×[toxin]+koff , τoff=1/koff where kon represents the second-order association rate constant, koff indicates the first-order dissociation rate constant and [toxin] is the sCm39 concentration. […] The second-order rate constant of association (kon) was determined by fitting the 1/τon data points using linear regression with koff as the y-intercept.

## CC[C@H](C)[C@@H]1NC(=O)[C@H](C)NC(=O)[C@H](C)NC(=O)[C@H](CCCCN)NC(=O)[C@@H]2CSSC[C@@H](C(=O)N[C@@H](Cc3ccc(O)cc3)C(=O)N[C@@H](Cc3ccc(O)cc3)C(=O)O)NC(=O)[C@H](CCCCN)NC(=O)[C@@H]3CSSC[C@H](NC(=O)[C@H](CCC(=O)O)NC(=O)[C@H](CO)NC(=O)[C@H](CO)NC(=O)[C@H](CO)NC(=O)[C@H](CCCCN)NC(=O)[C@@H](NC(=O)[C@H](CCCCN)NC(=O)[C@H](Cc4c[nH]cn4)NC(=O)[C@H](CC(N)=O)NC(=O)[C@@H](NC(=O)[C@H](Cc4ccccc4)NC(=O)[C@@H](N)[C@@H](C)O)[C@@H](C)CC)CSSC[C@H](NC(=O)[C@H](CCCCN)NC(=O)CNC(=O)[C@H](CO)NC(=O)[C@H](C)NC(=O)[C@H](CCCNC(=N)N)NC(=O)CNC1=O)C(=O)N[C@@H]([C@@H](C)CC)C(=O)N[C@@H](CC(N)=O)C(=O)N[C@@H](CO)C(=O)N[C@@H]([C@@H](C)O)C(=O)N3)C(=O)N[C@@H](CC(C)C)C(=O)N1CCC[C@H]1C(=O)N[C@@H](C)C(=O)N2 [Cm39]
[1]; 1 µM, PHA-activated human peripheral T lymphocytes, 3−5 min, n = 3−5
  decrease in current: < 3%
[1]; 1 μM, human peripheral T lymphocytes
  inhibition (in words): does not inhibit; also recorded: did not show any effect
[2]; 5 nM, CHO cells, pulses to +50 mV, read-out: inhibition of KV1.2 current at equilibrium block
  inhibition at 0.005 µM: ~5%
[2]; 20 nM, CHO cells, pulses to +50 mV, read-out: inhibition of KV1.2 current at equilibrium block
  inhibition at 0.02 µM: ~22%
[2]; 50 nM, CHO cells, pulses to +50 mV, read-out: inhibition of KV1.2 current at equilibrium block
  inhibition at 0.05 µM: ~43%
[2]; 100 nM, CHO cells, pulses to +50 mV, read-out: inhibition of KV1.2 current at equilibrium block
  inhibition at 0.1 µM: ~62%
[2]; 250 nM, CHO cells, pulses to +50 mV, read-out: inhibition of KV1.2 current at equilibrium block
  inhibition at 0.25 µM: ~78%
[2]; 500 nM, CHO cells, pulses to +50 mV, read-out: inhibition of KV1.2 current at equilibrium block
  inhibition at 0.5 µM: ~87%
[2]; 1 µM, CHO cells, n = 3−5 (Figure 3M)
  reduction of current at equilibrium block: 95%
[2]; 5−500 nM
  toxin association and dissociation kinetics: fast
[2]; 5−500 nM, listed as sCm39
  toxin association and dissociation kinetics: very fast
[2]; KV1.2 over KV1.3
  selectivity for KV1.2 over KV1.3: > 15 fold
[2]; concentration-response of KV1.2 block, CHO cells
  Hill coefficient: 0.96
[2]; slope of linear regression of 1/τon vs concentration, r^2 = 0.97, CHO cells, read-out: second-order association rate constant kon
  kon: 215000 M⁻¹ s⁻¹
[2]; wash-out with toxin-free solution, 5−500 nM
  reversibility of KV1.2 block: fully reversible
[2]; wash-out, single-exponential fit, CHO cells, simple bimolecular interaction assumed, read-out: dissociation rate constant koff (1/τoff)
  koff: 0.019 ± 0.0013 s⁻¹
